Our source for the GI50, remaining binding and IC50 values is publication PMC5458547, “Discovery of first-in-class reversible dual small molecule inhibitors against G9a and DNMTs in hematological malignancies” (Nature Communications, 2017).

Molecules are shown by their SMILES. Where only a bound is given, the exact number is not on record here.

Experiment [1] has as its system LAL-CUN-13. In words: Cell proliferation assay (MTS). The class given is cell-based. To be noted: Homo sapiens; ALL, 48 h.
Experiment [2] deals with T1, CDK11 (Homo sapiens, UniProt Q9BWU1).
T1 construct: purchased DiscoverX KINOMEscan (kinases); BPS Bioscience (epigenetic targets)
T1 sequence (Q9BWU1 whole entry): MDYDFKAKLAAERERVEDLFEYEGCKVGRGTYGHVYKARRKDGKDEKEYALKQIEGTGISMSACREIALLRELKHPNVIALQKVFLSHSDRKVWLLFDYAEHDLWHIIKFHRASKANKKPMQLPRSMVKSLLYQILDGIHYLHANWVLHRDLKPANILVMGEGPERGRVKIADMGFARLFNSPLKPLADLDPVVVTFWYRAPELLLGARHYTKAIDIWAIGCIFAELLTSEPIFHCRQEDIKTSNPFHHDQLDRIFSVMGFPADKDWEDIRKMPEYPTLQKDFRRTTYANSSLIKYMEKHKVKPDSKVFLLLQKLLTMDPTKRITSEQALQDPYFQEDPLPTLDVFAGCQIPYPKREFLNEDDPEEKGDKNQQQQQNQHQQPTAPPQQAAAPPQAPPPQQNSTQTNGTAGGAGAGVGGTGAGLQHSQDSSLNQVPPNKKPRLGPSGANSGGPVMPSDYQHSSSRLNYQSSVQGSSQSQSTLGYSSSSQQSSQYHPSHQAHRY
In words: KINOMEscan kinase profiling. The class given is binding. To be noted: read-out: Percent Control. The protocol:
precipitate the proteins. The mixture was then agitated for 5 min and centrifuged at 13200 rpm for 10 min at 4 °C. A 5 µL aliquot of the resulting supernatant was injected onto the LC-MS/MS system for analysis.
Frozen plasma samples were thawed at room temperature, vortexed thoroughly and subjected to the above described extraction procedure.
The pharmacokinetic parameters were obtained by fitting the blood concentration-time data to a non-compartmental model with the WinNonlin software (Pharsight, Mountain View, CA). […]
concentration-time profile for a dosing regimen of 2.5 mg/kg administered intravenously every 24 h for 3 weeks was simulated with Winnonlin.
Kinase Selectivity Profiling
(out of which 90 are non-mutant kinases) was performed at DiscoverRx (http://www.discoverx.com/home) using the KINOMEscan™ screening platform at a test concentration of 10 µM. Results for primary screen […]
positive control signal) / (negative control signal – positive control signal) *100, where negative control corresponds to DMSO treatment (100%) and positive control to the signal obtained with a control competitive compound (0%). […]
using the Hill equation. […]
MicroScale Thermophoresis (MST) was performed to quantify biomolecular interactions between CM-579 and DNMT1 (full length). […]
Cell proliferation was analyzed using the CellTiter 96 Aqueous One Solution Cell Proliferation Assay (Promega, Madison, W). […]

Experiment [3] concerns NP18. As to the kind of experiment: Cell proliferation assay (MTS). The class given is cell-based. The following applies: Homo sapiens; Pancreas.
The subject of experiment [4] is 5637. In words: Cell proliferation assay (MTS). The following applies: Homo sapiens; Bladder. It is filed as cell-based.
Experiment [5] has as its system HT. As to the kind of experiment: Cell proliferation assay (MTS). The class given is cell-based. To be noted: Homo sapiens, GC-DLBCL, 48 h.
The subject of experiment [6] is SU-DHL-4. As to the kind of experiment: Cell proliferation assay (MTS). The following applies: Homo sapiens, GC-DLBCL, 48 h. It is filed as cell-based.
The test system of experiment [7] is Mia Paca-2. In words: Cell proliferation assay (MTS). It is filed as cell-based. To be noted: Homo sapiens, Pancreas.
For experiment [8], the target named is T2, hERG potassium channels (Homo sapiens, UniProt Q12809).
T2 construct: purchased Life technologies PV5365
T2 sequence (Q12809 whole entry): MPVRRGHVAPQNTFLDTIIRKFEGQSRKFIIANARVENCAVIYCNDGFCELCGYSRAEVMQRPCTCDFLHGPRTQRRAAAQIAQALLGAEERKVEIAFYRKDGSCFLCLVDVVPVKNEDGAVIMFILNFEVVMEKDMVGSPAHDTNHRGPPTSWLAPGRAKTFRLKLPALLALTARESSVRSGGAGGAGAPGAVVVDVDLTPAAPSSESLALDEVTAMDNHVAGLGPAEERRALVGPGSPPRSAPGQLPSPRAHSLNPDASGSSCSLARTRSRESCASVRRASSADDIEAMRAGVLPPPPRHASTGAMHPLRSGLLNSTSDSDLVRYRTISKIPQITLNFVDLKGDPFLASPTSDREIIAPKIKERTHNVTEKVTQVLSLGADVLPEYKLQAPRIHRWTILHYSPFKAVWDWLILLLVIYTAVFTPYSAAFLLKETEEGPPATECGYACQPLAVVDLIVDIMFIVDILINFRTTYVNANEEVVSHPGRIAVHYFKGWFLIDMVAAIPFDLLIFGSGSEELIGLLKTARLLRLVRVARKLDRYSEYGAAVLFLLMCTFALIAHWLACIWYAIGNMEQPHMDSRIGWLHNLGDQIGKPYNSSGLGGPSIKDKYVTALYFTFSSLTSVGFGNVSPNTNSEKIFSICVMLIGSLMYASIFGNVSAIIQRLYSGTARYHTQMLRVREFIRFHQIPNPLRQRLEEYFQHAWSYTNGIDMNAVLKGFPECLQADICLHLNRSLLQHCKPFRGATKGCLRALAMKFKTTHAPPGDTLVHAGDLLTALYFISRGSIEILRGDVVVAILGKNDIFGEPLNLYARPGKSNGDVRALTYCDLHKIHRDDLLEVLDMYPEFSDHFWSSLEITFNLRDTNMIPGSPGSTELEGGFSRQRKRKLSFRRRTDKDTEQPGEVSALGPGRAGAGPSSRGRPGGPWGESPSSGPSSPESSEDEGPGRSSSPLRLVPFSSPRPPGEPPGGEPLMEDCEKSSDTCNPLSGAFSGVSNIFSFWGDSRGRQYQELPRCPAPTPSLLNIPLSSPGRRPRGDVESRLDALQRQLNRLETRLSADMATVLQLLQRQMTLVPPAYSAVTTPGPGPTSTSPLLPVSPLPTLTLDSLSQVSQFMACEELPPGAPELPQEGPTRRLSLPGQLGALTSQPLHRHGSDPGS
In words: hERG blockade assay (Predictor fluorescence polarization). The following applies: read-out: hERG binding IC50.

Usually GI50 stands for the concentration giving 50% growth inhibition. Take `COc1cc2c(NC3CCN(C)CC3)cc(-c3ccc(C)o3)nc2cc1OCCCN1CCCC1` [CM-272, 6-methoxy-2-(5-methyl-2-furyl)-N-(1-methyl-4-piperidyl)-7-(3-pyrrolidin-1-ylpropoxy)quinolin-4-amine]: the GI50 in experiment [1] came out at 1.4 µM; in experiment [3], 0.577 µM; in experiment [4], 0.717 µM; in experiment [5], 1.17 µM; in experiment [6], 1.16 µM; in experiment [7], 0.206 µM. Further, the remaining binding at 10 µM in experiment [2] was found to be 88%.

One may read the IC50 as the concentration that inhibits the measured activity by half. As for `COc1cc2c(NCC3CCN(C)CC3)cc(-c3ccc(C)o3)nc2cc1OCCCN1CCCC1` [CM-579, 6-methoxy-2-(5-methyl-2-furyl)-N-[(1-methyl-4-piperidyl)methyl]-7-(3-pyrrolidin-1-ylpropoxy)quinolin-4-amine], the concentration for half-maximal inhibition (IC50) in experiment [8] was above 100 µM.
